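All cell lines were grown in 96-well plates and treated with compound for 48 hours. TGI: concentration producing complete growth inhibition.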
What was measured:
Experiment in all cases: NCI tumour cell line growth inhibition, 48 h
OVCAR-8 ovarian = system: OVCAR-8 ovarian
ACHN renal = system: ACHN renal
NCI-H522 lung = system: NCI-H522 lung
NCI-H226 lung = system: NCI-H226 lung
M14 melanoma = system: M14 melanoma
OVCAR-4 ovarian = system: OVCAR-4 ovarian
SW-620 colon = system: SW-620 colon
SN12C renal = system: SN12C renal
MALME-3M melanoma = system: MALME-3M melanoma
NCI/ADR-RES ovarian = system: NCI/ADR-RES ovarian
PC-3 prostate = system: PC-3 prostate
TK-10 renal = system: TK-10 renal
SF-268 CNS = system: SF-268 CNS
UACC-257 melanoma = system: UACC-257 melanoma
786-0 renal = system: 786-0 renal
MCF7 breast = system: MCF7 breast
SK-MEL-2 melanoma = system: SK-MEL-2 melanoma
HCC-2998 colon = system: HCC-2998 colon
SF-539 CNS = system: SF-539 CNS
UACC-62 melanoma = system: UACC-62 melanoma
MDA-N = system: MDA-N
SF-295 CNS = system: SF-295 CNS
HOP-92 NSCLC = system: HOP-92 NSCLC
SK-MEL-28 melanoma = system: SK-MEL-28 melanoma
HCT-116 colon = system: HCT-116 colon
U251 CNS = system: U251 CNS
HOP-62 NSCLC = system: HOP-62 NSCLC
EKVX NSCLC = system: EKVX NSCLC
SR leukemia = system: SR leukemia
SNB-75 CNS = system: SNB-75 CNS
SK-MEL-5 melanoma = system: SK-MEL-5 melanoma
CCRF-CEM leukemia = system: CCRF-CEM leukemia
LOX IMVI melanoma = system: LOX IMVI melanoma
KM12 colon = system: KM12 colon
OVCAR-3 ovarian = system: OVCAR-3 ovarian
MDA-MB-435 = system: MDA-MB-435
DU-145 prostate = system: DU-145 prostate
HT29 colon = system: HT29 colon
IGROV1 ovarian = system: IGROV1 ovarian
SK-OV-3 ovarian = system: SK-OV-3 ovarian
HL-60(TB) leukemia = system: HL-60(TB) leukemia
NCI-H23 lung = system: NCI-H23 lung
A549 NSCLC = system: A549 NSCLC
MDA-MB-231 breast = system: MDA-MB-231 breast
OVCAR-5 ovarian = system: OVCAR-5 ovarian
HS 578T breast = system: HS 578T breast
UO-31 renal = system: UO-31 renal
SNB-19 CNS = system: SNB-19 CNS
K-562 leukemia = system: K-562 leukemia
RPMI-8226 leukemia = system: RPMI-8226 leukemia
HCT-15 colon = system: HCT-15 colon
MOLT-4 leukemia = system: MOLT-4 leukemia
T-47D breast = system: T-47D breast
CAKI-1 renal = system: CAKI-1 renal
BT-549 breast = system: BT-549 breast
COLO 205 colon = system: COLO 205 colon
RXF 393 renal = system: RXF 393 renal
NCI-H460 lung = system: NCI-H460 lung

Measured: TGI

COC1CC(OC2C(C)OC(OC3C(C)OC(OC4C(C)OC(O[C@H]5CC[C@@]6(C)C(=CC[C@]7(O)[C@@H]6C[C@@H](OC(=O)/C=C/c6ccccc6)[C@@]6(C)[C@]7(O)CC[C@@]6(O)C(C)=O)C5)CC4OC)CC3OC)CC2OC)OC(C)C1O (stereo partly drawn)
not listed: RXF 393 renal | NCI-H460 lung
> 12.5 µM: all other assays above

O=C(OCCN=C1c2ccccc2CCc2ccccc21)c1ccccc1
50.2 µM: SR leukemia
34.2 µM: RPMI-8226 leukemia
39 µM: MOLT-4 leukemia
not listed: NCI-H522 lung
> 100 µM: all other assays above
